From patent US20250171495A1, “MUTLI-TARGETED SERINE PROTEASE INHIBITORS FOR TREATMENT OF CANCER AND VIRAL INFECTION” (Washington University, priority 2023, published 2025)
Like-named read-outs stand apart in the source and are kept apart here.

Tests used:
Type in all cases: biochemical
[1] = target: T1, matriptase (Homo sapiens, UniProt Q9Y5Y6); experiment: Fluorogenic kinetic enzyme inhibitor assay, matriptase
T1 construct: purchased R&D Systems 3946-SEB-010
T1 sequence (Q9Y5Y6 615-855 limits assumed): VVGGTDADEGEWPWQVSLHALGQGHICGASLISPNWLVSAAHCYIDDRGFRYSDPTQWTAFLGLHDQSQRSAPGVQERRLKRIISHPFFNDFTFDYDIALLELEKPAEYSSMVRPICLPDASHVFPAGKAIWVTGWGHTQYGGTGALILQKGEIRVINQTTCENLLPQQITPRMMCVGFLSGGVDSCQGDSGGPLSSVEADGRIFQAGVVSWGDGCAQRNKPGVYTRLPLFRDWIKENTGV

[2] = target: T2, hepsin (Homo sapiens, UniProt P05981); experiment: Fluorogenic kinetic enzyme inhibitor assay, hepsin
T2 construct: purchased R&D Systems 4776-SE-010
T2 sequence (P05981 163-417 limits assumed): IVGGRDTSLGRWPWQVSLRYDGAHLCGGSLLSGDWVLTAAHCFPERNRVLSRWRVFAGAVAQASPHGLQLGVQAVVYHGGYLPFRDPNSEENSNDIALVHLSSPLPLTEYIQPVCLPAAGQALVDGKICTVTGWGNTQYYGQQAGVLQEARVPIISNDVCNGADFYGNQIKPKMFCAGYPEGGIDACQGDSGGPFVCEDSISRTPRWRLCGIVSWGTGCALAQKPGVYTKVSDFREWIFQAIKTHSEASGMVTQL
T2 sequence (P05981 1-162 partner limits assumed): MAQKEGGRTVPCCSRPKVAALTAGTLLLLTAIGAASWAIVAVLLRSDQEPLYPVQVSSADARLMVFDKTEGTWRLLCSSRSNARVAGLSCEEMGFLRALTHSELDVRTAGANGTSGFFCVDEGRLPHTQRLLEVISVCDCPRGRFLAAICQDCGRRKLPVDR

[3] = target: T3, HGFA (Homo sapiens, UniProt Q04756); experiment: Fluorogenic kinetic enzyme inhibitor assay, HGFA
T3 construct: purchased R&D Systems 1514-SE-010
T3 sequence (Q04756 408-655 limits assumed): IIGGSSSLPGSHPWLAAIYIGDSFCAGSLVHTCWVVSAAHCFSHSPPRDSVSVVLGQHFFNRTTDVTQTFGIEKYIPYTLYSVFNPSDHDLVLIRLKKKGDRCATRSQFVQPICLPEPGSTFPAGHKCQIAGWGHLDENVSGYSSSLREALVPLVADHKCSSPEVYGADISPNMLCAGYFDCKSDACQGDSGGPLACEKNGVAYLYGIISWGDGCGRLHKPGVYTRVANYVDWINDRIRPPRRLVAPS
T3 sequence (Q04756 373-407 partner limits assumed): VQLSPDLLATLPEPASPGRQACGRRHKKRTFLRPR

[4] = target: T4, Factor Xa (Homo sapiens, UniProt P00742); experiment: Fluorogenic assay, Factor Xa; settings: read-out: Factor Xa IC50
T4 construct: TMPRSS2; Matriptase; Hepsin; HGFA; Thrombin; Factor Xa
T4 sequence (P00742 235-488 limits assumed): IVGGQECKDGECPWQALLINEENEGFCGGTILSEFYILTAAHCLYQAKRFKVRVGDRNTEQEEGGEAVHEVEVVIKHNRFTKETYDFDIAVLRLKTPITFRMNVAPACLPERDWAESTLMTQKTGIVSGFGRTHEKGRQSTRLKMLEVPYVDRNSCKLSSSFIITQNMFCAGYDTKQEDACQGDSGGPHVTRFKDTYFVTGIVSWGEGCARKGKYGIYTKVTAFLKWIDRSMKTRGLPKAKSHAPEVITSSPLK
T4 sequence (P00742 41-179 partner limits assumed): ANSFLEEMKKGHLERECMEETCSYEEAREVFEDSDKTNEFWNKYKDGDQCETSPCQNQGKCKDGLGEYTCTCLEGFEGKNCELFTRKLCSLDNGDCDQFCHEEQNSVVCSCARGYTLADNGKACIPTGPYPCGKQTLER

[5] = target: TMPRSS2 (Homo sapiens, UniProt O15393); experiment: Fluorogenic kinetic enzyme inhibitor assay, TMPRSS2; parameters: purchased Cusabio Technology CSB-YP023924HU
Sequence of TMPRSS2 (O15393 106-492 limits assumed): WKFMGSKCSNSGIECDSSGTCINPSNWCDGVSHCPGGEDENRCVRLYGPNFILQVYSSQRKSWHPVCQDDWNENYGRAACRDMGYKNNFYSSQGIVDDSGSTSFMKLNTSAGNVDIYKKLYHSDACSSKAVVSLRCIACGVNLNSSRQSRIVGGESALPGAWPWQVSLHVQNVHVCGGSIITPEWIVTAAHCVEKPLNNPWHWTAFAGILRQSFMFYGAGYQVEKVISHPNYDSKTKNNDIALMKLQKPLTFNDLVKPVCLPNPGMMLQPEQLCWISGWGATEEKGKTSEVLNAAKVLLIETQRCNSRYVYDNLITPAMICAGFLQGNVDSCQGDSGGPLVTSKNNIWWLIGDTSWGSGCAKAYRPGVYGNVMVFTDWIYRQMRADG

[6] = target: Thrombin (Homo sapiens, UniProt P00734); experiment: Fluorogenic assay, thrombin
[7] = 30 min incubation, Boc-QLR-AMC at Km, read-out: HGFA IC50
[8] = 30 min incubation, Boc-QAR-AMC at Km, read-out: TMPRSS2 IC50
[9] = 30 min incubation, Boc-QAR-AMC at Km, read-out: Hepsin IC50

Row | Compound | IC50 ([1]; read-out: Matriptase IC50) | IC50 ([2]; read-out: Hepsin IC50) | IC50 ([3]; read-out: HGFA IC50) | IC50 [4] | IC50 ([5]; read-out: TMPRSS2 IC50) | IC50 [3, 7] | other results
1 | CCC(C)[C@H](NC(C)=O)C(=O)N[C@@H](CCC(N)=O)C(=O)N[C@@H](Cc1ccccc1)C(=O)N[C@@H](CCCNC(=N)N)C(=O)c1nc2ccccc2s1 (stereo partly drawn) [MM3116, N-[(S)-1-[N-(S)-1-[(1,3-benzothiazol-2-yl)carbonyl]-4-guanidinobutylcarbamoyl]-2-phenylethyl](S)-2-[(2S)-2-acetylamino-3-methylvalerylamino]glutaramide] | 0.92 nM | 0.14 nM | 30 nM | 792 nM | 1.73 nM | – | –
2 | CC(=O)NCC(=O)N[C@@H](CCC(N)=O)C(=O)N[C@@H](Cc1ccccc1)C(=O)N[C@@H](CCCNC(=N)N)C(=O)c1nc2ccccc2s1 [MM3122, N-[(S)-1-[N-(S)-1-[(1,3-benzothiazol-2-yl)carbonyl]-4-guanidinobutylcarbamoyl]-2-phenylethyl](S)-2-[(acetylaminomethyl)carbonylamino]glutaramide] | 0.314 nM | 0.194 nM | – | 700 nM | 0.03 nM | – | IC50 [3]: 32.5 nM
3 | CC(=O)N1CCC[C@H]1C(=O)N[C@@H](CCC(N)=O)C(=O)N[C@@H](Cc1ccccc1)C(=O)N[C@@H](CCCNC(=N)N)C(=O)c1nc2ccccc2s1 [MM3123, N-[(S)-1-[N-(S)-1-[(1,3-benzothiazol-2-yl)carbonyl]-4-guanidinobutylcarbamoyl]-2-phenylethyl](S)-2-[(S)-1-acetyl-2-pyrrolidinylcarbonylamino] glutaramide] | 0.316 nM | – | 75 nM | 199 nM | 0.06 nM | – | IC50 [2]: 0.135 nM
4 | CC(=O)N[C@@H](CCC(N)=O)C(=O)N[C@@H](Cc1ccccc1)C(=O)N[C@@H](CCCNC(=N)N)C(=O)c1nc2ccccc2s1 [MM3144, N-[(S)-1-[N-(S)-1-[(1,3-benzothiazol-2-yl)carbonyl]-4-guanidinobutylcarbamoyl]-2-phenylethyl](S)-2-acetylaminoglutaramide] | – | – | – | 4.5 nM | – | 14 nM | –
5 | CCC(C)[C@H](NC(C)=O)C(=O)N[C@@H](CCC(N)=O)C(=O)N[C@H](C(=O)N[C@H](CCCNC(=N)N)C(=O)c1nc2ccccc2s1)C(C)C (stereo partly drawn) [MM3180-1, N-[(S)-2-methyl-1-[N-(R)-1-[(1,3-benzothiazol-2-yl)carbonyl]-4-guanidinobutylcarbamoyl]propyl](S)-2-[(2S)-2-acetylamino-3-methylvalerylamino]glutaramide] | – | – | 14600 nM | > 20000 nM | 2.89 nM | – | IC50 [6]: > 20000 nM
6 | CC(=O)N[C@H]1CC(=O)NCCCC[C@@H](C(=O)N[C@@H](CCCNC(=N)N)C(=O)c2nc3ccccc3s2)NC(=O)[C@H](CCC(N)=O)NC1=O [VD3152, N-[(S)-1-[(1,3-benzothiazol-2-yl)carbonyl]-4-guanidinobutyl]-(3S,6S,14S)-6-acetylamino-3-(2-carbamoylethyl)-2,5,8-trioxo-1,4,9-triaza-14-cyclotetradecane-carboxamide] | 7.7 nM | – | – | – | 24.3 nM | 16100 nM | IC50 [6]: > 20000 nM
7 | CC(=O)N[C@H]1Cc2ccc(cc2)OC/C=C\CNC(=O)CC[C@@H](C(=O)N[C@@H](CCCNC(=N)N)C(=O)c2nc3ccccc3s2)NC(=O)[C@H](CC(C)C)NC1=O [VD4018, N-[(S)-1-[(1,3-benzothiazol-2-yl)carbonyl]-4-guanidinobutyl]-(4Z,11S,14S,17S)-17-acetylamino-14-isobutyl-8,13,16-trioxo-2-oxa-7,12,15-triazabicyclo[17.2.2]tricosa-1(21),4,19,22-tetraene-11-carboxamide] | – | – | – | 12400 nM | – | 6500 nM | IC50 [5, 8]: 2.48 nM
8 | CC(=O)N[C@H]1Cc2ccc(cc2)OC/C=C\CNC(=O)C[C@@H](C(=O)N[C@@H](CCCNC(=N)N)C(=O)c2nc3ccccc3s2)NC(=O)[C@H](CC(C)C)NC1=O [VD4054, N-[(S)-1-[(1,3-benzothiazol-2-yl)carbonyl]-4-guanidinobutyl]-(4Z,10S,13S,16S)-16-acetylamino-13-isobutyl-8,12,15-trioxo-2-oxa-7,11,14-triazabicyclo[16.2.2]docosa-1(20),4,18,21-tetraene-10-carboxamide] | 44 nM | – | > 20000 nM | 3180 nM | 21.6 nM | – | IC50 [2, 9]: 0.99 nM
9 | CC(=O)N[C@H]1Cc2cn(nn2)CCCC[C@H](C(=O)N[C@@H](CCCNC(=N)N)C(=O)c2nc3ccccc3s2)NC(=O)[C@H](CC(C)C)NC1=O [VD4090, N-[(S)-1-[(1,3-benzothiazol-2-yl)carbonyl]-4-guanidinobutyl]-(6R,9S,12S)-12-acetylamino-9-isobutyl-8,11-dioxo-1,7,10,15,16-pentaazabicyclo[12.2.1]heptadeca-14(17),15-diene-6-carboxamide] | – | – | – | 4290 nM | – | 3080 nM | IC50 [6]: > 20000 nM; IC50 [5, 8]: 4.19 nM
10 | CC(=O)N[C@H]1Cc2ccc(cc2)OCCCC[C@@H](C(=O)N[C@@H](CCCNC(=N)N)C(=O)c2nc3ccccc3s2)NC(=O)[C@H](Cc2ccccc2)NC1=O [VD4111B, N-[(S)-1-[(1,3-benzothiazol-2-yl)carbonyl]-4-guanidinobutyl]-(7S,10S,13S)-13-acetylamino-10-benzyl-9,12-dioxo-2-oxa-8,11-diazabicyclo[13.2.2]nonadeca-1(17),15,18-triene-7-carboxamide] | – | – | – | 8700 nM | 16.4 nM | – | IC50 [6]: > 20000 nM
11 | CC(=O)N[C@H]1Cc2cccc(c2)Oc2ccc(cc2)C[C@@H](C(=O)N[C@H](CCCNC(=N)N)C(=O)c2nc3ccccc3s2)NC(=O)[C@H](CC(C)C)NC1=O [VD5123A, N-{(R)-1-[(1,3-benzothiazol-2-yl)carbonyl]-4-guanidinobutyl}-(9S,12S,15S)-9-acetylamino-12-isobutyl-10,13-dioxo-2-oxa-11,14-diazatricyclo [15.2.2.1^3,^7]docosa-1(19),3(22),4,6,17,20-hexaene-15-carboxamide] | – | 146 nM | 17300 nM | – | 1.78 nM | – | IC50 [1]: 478 nM
12 | CC(=O)N[C@H]1Cc2cccc(c2)Oc2ccc(cc2)C[C@@H](C(=O)N[C@@H](CCCNC(=N)N)C(=O)c2nc3ccccc3s2)NC(=O)[C@H](CC(C)C)NC1=O [VD5123B, N-[(S)-1-[(1,3-benzothiazol-2-yl)carbonyl]-4-guanidinobutyl]-(9S,12S,15S)-9-acetylamino-12-isobutyl-10,13-dioxo-2-oxa-11,14-diazatricyclo[15.2.2.1^3,^7] docosa-1(19),3,5,7(22), 17,20-hexaene-15-carboxamide] | 140 nM | – | – | – | 15.2 nM | 3980 nM | IC50 [2, 9]: 36.9 nM
13 | CC(=O)N[C@@H](CO)C(=O)N[C@@H](CCC(N)=O)C(=O)N[C@@H](CC(C)C)C(=O)N[C@@H](CCCNC(=N)N)C(=O)c1nccs1 [ZFH6138, N-[(S)-3-methyl-1-[N-(S)-4-guanidino-1-[(1,3-thiazol-2-yl)carbonyl]butylcarbamoyl]butyl](S)-2-[(S)-2-acetylamino-3-hydroxypropionylamino]glutaramide] | – | 0.68 nM | – | – | 1.54 nM | – | IC50 [1]: 18 nM; IC50 [3]: 364 nM
14 | CC(=O)N[C@@H](CC(C)C)C(=O)N[C@@H](CC(C)C)C(=O)N[C@@H](CCCNC(=N)N)C(=O)c1nccs1 [ZFH6201-1, N-[(S)-4-guanidino-1-[(1,3-thiazol-2-yl)carbonyl]butyl](S)-2-[(S)-2-acetylamino-4-methylvalerylamino]-4-methylvaleramide] | 56 nM | 4.6 nM | 506 nM | – | 44.2 nM | – | –
15 | CC(=O)N[C@@H](CCCCN)C(=O)N[C@@H](CCC(N)=O)C(=O)N[C@@H](CC(C)C)C(=O)N[C@@H](CCCNC(=N)N)C(=O)c1nc2ccccc2s1 [ZFH7006, N-[(S)-3-methyl-1-[N-(S)-1-[(1,3-benzothiazol-2-yl)carbonyl]-4-guanidinobutylcarbamoyl]butyl](S)-2-[(S)-1-acetylamino-5-aminopentylcarbonyl-amino]glutaramide] | 1.1 nM | 0.17 nM | – | 258 nM | – | 60 nM | IC50 [5]: 18.1 nM
16 | CC(=O)N[C@@H](CO)C(=O)N[C@@H](CCCCN)C(=O)N[C@@H](CC(C)C)C(=O)N[C@@H](CCCNC(=N)N)C(=O)c1nc2ccccc2s1 [ZFH7053, N-[(S)-3-methyl-1-[N-(S)-1-[(1,3-benzothiazol-2-yl)carbonyl]-4-guanidinobutylcarbamoyl]butyl](S)-2-[(S)-2-acetylamino-3-hydroxypropionylamino]-6-aminohexanamide] | 6.1 nM | 0.32 nM | – | 3800 nM | – | 66 nM | IC50 [5]: 39.2 nM
